Tests used:
[1] = tested on: rat peritoneal mesothelial cells; experiment: Cytotoxicity study, LDH release; type: cell-based; conditions: rat PMCs, 72 hours, FIG. 5
Protocol: The cells were treated with carrier or aliskiren for 72 hours and cell viability was evaluated quantifying the LDH released into the culture medium. The data is expressed as mean±SEM, n=12. * p<0.05 compared to the control (carrier).
Rat peritoneal mesothelial cells were isolated by enzymatic digestion in accordance with protocols described in Hjelle J T, Golinska B T, Waters D C, et al. Perit Dial Int 1989; 9: 341-7. Briefly, female rats weighing 200-400 g of the Spragle-Dawley strain were sacrificed pursuant to Royal Decree 1201/2005, of 10 Oct., on protection of animals used for experimental and other scientific purposes. The abdominal cavity was quickly opened and the abdominal wall (peritoneum and smooth muscle) extracted under sterile conditions. […]
To this end, the cells were seeded on 24-well plates and exposed to the peritoneal dialysis solutions object of the present invention to study their toxicity. The toxic effects were evaluated measuring cell membrane rupture and the consequent release of LDH to the supernatant through the CytoTox96® kit (Promega). […] Absorbance of the lysate and cell supernatant was obtained using a microplate spectrophotometer at a wavelength of 490 nm, following the manufacturer's instructions.

[2] = tested on: peritoneum; experiment: Chronic peritoneal dialysis in rats, peritoneal equilibrium test (PET); type: in vivo, rat; conditions: rats dialysed daily for four weeks with PDF, aliskiren 0.1 or 1 mg/Kg, FIGS. 12 and 13
Protocol: The rats were exposed daily for four weeks to carrier (saline serum), 1.5% PDF, 2.3% PDF or 4.5% PDF supplemented by carrier, 0.1 mg/Kg aliskiren or 1 mg/Kg aliskiren. The data are expressed as mean±SEM, n=6 rats per group. * p<0.05, compared to the group treated with carrier in the absence of aliskiren (carrier). # p<0.05, compared to their respective groups treated with PDFs in the absence of aliskiren. […] The rats were exposed daily for four weeks to carrier (saline serum), 1.5% PDF, 2.3% PDF or 4.5% PDF supplemented by carrier, 0.1 mg/Kg aliskiren or 1 mg/Kg aliskiren. The data is expressed as mean media±SEM, n=6 rats per group. * p<0.05, compared to the group treated with carrier in the absence of aliskiren (carrier). # p<0.05, compared to their respective groups treated with PDFs in the absence of aliskiren. […] Their body weight was measured at the start and end of the experimental period. […] The concentrations of creatinine and glucose in the serum and dialysate were measured using enzymatic methods. The peritoneal transport of solutes was calculated, on one hand, as the glucose concentration in the dialysate 2 hours after the PET relative to the initial glucose concentration in the PDF (D2/D0 glucose) and, on the other, as the dialysate/plasma creatinine concentration ratio (D2/P2 creatinine) 2 h after the PET. […]

How did the “concentration at which toxicity with respect to mesothelial cells is shown (LDH released)” value [1] turn out when `COCCCOc1cc(C[C@@H](C[C@H](N)[C@@H](O)C[C@H](C(=O)NCC(C)(C)C(N)=O)C(C)C)C(C)C)ccc1OC` [aliskiren] was run?
Its value is ≥ 1000 µM.

And the “peritoneal damage in vivo (D2/D0 glucose, D2/P2 creatinine)” value [2]?
Its value is “reduced peritoneal damage”.

Source: patent publication US20130065964A1, “PERITONEAL DIALYSIS SOLUTION” (UNIVERSIDAD DE CASTILLA LA MANCHA, priority 2010, published 2013)
